In ChEMBL document CHEMBL1201861, “Genomics of Drug Sensitity in Cancer screening data, Wellcome Trust Sanger Institute”:

Experiments:
Test in all cases: cells
[1] = system: HCC1569; type: functional, cell-based; conditions: Homo sapiens;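 further: growth inhibition of human HCC1569 cells, read out with a cell viability assay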
Description: SANGER: Inhibition of human HCC1569 cell growth in a cell viability assay.

[2] = system: Ca9-22; type: functional, cell-based; conditions: Homo sapiens;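 further: growth inhibition of Ca9-22 cells, read out with a cell viability assay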
Description: SANGER: Inhibition of human Ca9-22 cell growth in a cell viability assay.

[3] = system: 5637; type: functional, cell-based; conditions: Homo sapiens
Description: SANGER: Inhibition of human 5637 cell growth in a cell viability assay.

[4] = system: GAMG; type: functional, cell-based; conditions: Homo sapiens;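 further: cell growth inhibition measured by a viability assay in the GAMG human cell line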
Description: SANGER: Inhibition of human GAMG cell growth in a cell viability assay.

[5] = system: SAS; type: functional, cell-based; conditions: Homo sapiens;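 further: growth inhibition of SAS cells, read out with a cell viability assay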
Description: SANGER: Inhibition of human SAS cell growth in a cell viability assay.

[6] = system: DMS-273; type: functional, cell-based; conditions: Homo sapiens
Description: SANGER: Inhibition of human DMS-273 cell growth in a cell viability assay.

[7] = system: NCI-H2122; type: functional, cell-based; conditions: Homo sapiens;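 further: growth inhibition of the cells, read out with a cell viability assay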
Description: SANGER: Inhibition of human NCI-H2122 cell growth in a cell viability assay.

[8] = system: NCI-H1563; type: functional, cell-based; conditions: Homo sapiens;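 further: growth inhibition of human NCI-H1563 cells, read out with a cell viability assay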
Description: SANGER: Inhibition of human NCI-H1563 cell growth in a cell viability assay.

[9] = system: SF-295; type: functional, cell-based; conditions: Homo sapiens;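 further: growth inhibition of SF-295 cells, read out with a cell viability assay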
Description: SANGER: Inhibition of human SF295 cell growth in a cell viability assay.

[10] = system: MC-IXC; type: functional, cell-based; conditions: Homo sapiens;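 further: growth inhibition of MC-IXC cells, read out with a cell viability assay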
Description: SANGER: Inhibition of human MC-IXC cell growth in a cell viability assay.

[11] = system: KYSE-150 cell line; type: functional, cell-based; conditions: Homo sapiens;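 further: growth inhibition of human KYSE-150 cells, read out with a cell viability assay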
Description: SANGER: Inhibition of human KYSE-150 cell growth in a cell viability assay.

[12] = system: MDA-MB-361; type: functional, cell-based; conditions: Homo sapiens
[13] = system: T-24; type: functional, cell-based; conditions: Homo sapiens;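 further: growth inhibition of T-24 cells, read out with a cell viability assay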
Description: SANGER: Inhibition of human T-24 cell growth in a cell viability assay.

[14] = system: U-251; type: functional, cell-based; conditions: Homo sapiens;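 further: growth inhibition of human U-251 cells, read out through a cell viability assay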
Description: SANGER: Inhibition of human U251 cell growth in a cell viability assay.

[15] = system: C3A; type: functional, cell-based; conditions: Homo sapiens;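 further: growth inhibition of C3A human cells, quantified with a cell viability readout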
Description: SANGER: Inhibition of human C3A cell growth in a cell viability assay.

[16] = system: 639-V; type: functional, cell-based; conditions: Homo sapiens;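 further: growth inhibition of 639-V cells, read out with a cell viability assay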
Description: SANGER: Inhibition of human 639-V cell growth in a cell viability assay.

[17] = system: BFTC-905; type: functional, cell-based; conditions: Homo sapiens
Description: SANGER: Inhibition of human BFTC-905 cell growth in a cell viability assay.

[18] = system: EFO-21; type: functional, cell-based; conditions: Homo sapiens;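 further: growth inhibition of EFO-21 cells measured with a viability assay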
Description: SANGER: Inhibition of human EFO-21 cell growth in a cell viability assay.

[19] = system: HT-1080; type: functional, cell-based; conditions: Homo sapiens
Description: SANGER: Inhibition of human HT-1080 cell growth in a cell viability assay.

[20] = system: SW-620; type: functional, cell-based; conditions: Homo sapiens;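 further: growth inhibition of human SW-620 cells, measured by a cell viability assay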
Description: SANGER: Inhibition of human SW620 cell growth in a cell viability assay.

[21] = system: NCI-H661; type: functional, cell-based; conditions: Homo sapiens;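 further: cell viability assay read-out, IC50 being the concentration that inhibits growth of the cells by half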
Description: SANGER: Inhibition of human NCI-H661 cell growth in a cell viability assay.

[22] = system: PA-1; type: functional, cell-based; conditions: Homo sapiens;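 further: IC50 for suppression of PA-1 cell proliferation, determined with a cell viability read-out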
Description: SANGER: Inhibition of human PA-1 cell growth in a cell viability assay.

[23] = system: VM-CUB-1; type: functional, cell-based; conditions: Homo sapiens;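 further: cell viability assay measuring growth inhibition of the human VM-CUB-1 cell line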
Description: SANGER: Inhibition of human VM-CUB-1 cell growth in a cell viability assay.

[24] = system: CAL-85-1; type: functional, cell-based; conditions: Homo sapiens;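 further: growth inhibition of human CAL-85-1 cells, read out with a cell viability assay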
Description: SANGER: Inhibition of human CAL-85-1 cell growth in a cell viability assay.

[25] = system: Kasumi 1; type: functional, cell-based, Homo sapiens; conditions: Homo sapiens, Kasumi 1;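 further: growth inhibition of human Kasumi-1 cells, read out by a cell viability assay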
Description: SANGER: Inhibition of human KASUMI-1 cell growth in a cell viability assay.

[26] = system: NCI-H2452; type: functional, cell-based; conditions: Homo sapiens;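 further: growth inhibition of NCI-H2452 cells, read out with a cell viability assay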
Description: SANGER: Inhibition of human NCI-H2452 cell growth in a cell viability assay.

[27] = system: 786-0; type: functional, cell-based; conditions: Homo sapiens
Description: SANGER: Inhibition of human 786-0 cell growth in a cell viability assay.

[28] = system: FTC-133; type: functional, cell-based; conditions: Homo sapiens
[29] = system: HuCCT-1; type: functional, cell-based, HuCCT1; conditions: Homo sapiens;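 further: growth inhibition of HuCCT-1 cells, read out by a cell viability assay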
Description: SANGER: Inhibition of human HuCCT1 cell growth in a cell viability assay.

[30] = system: 8505C; type: functional, cell-based; conditions: Homo sapiens
Description: SANGER: Inhibition of human 8505C cell growth in a cell viability assay.

[31] = system: HuTu80; type: functional, cell-based, Homo sapiens, HUTU-80; conditions: Homo sapiens, HuTu80;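 further: growth inhibition of HuTu80 human cells, determined with a cell viability readout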
Description: SANGER: Inhibition of human HUTU-80 cell growth in a cell viability assay.

[32] = system: SBC-5; type: functional, cell-based; conditions: Homo sapiens;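 further: cell viability assay read-out, IC50 is the concentration that inhibits growth of the cells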
Description: SANGER: Inhibition of human SBC-5 cell growth in a cell viability assay.

[33] = system: CAMA-1; type: functional, cell-based; conditions: Homo sapiens;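 further: growth inhibition of CAMA-1 cells, read out with a cell viability assay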
Description: SANGER: Inhibition of human CAMA-1 cell growth in a cell viability assay.

[34] = system: SW756; type: functional, cell-based; conditions: Homo sapiens;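 further: growth inhibition of human SW756 cells, read out with a cell viability assay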
Description: SANGER: Inhibition of human SW756 cell growth in a cell viability assay.

[35] = system: HLE; type: functional, cell-based; conditions: Homo sapiens;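 further: growth inhibition of human HLE cells, read out by a cell viability assay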
Description: SANGER: Inhibition of human HLE cell growth in a cell viability assay.

[36] = system: Panc1005; type: functional, cell-based; conditions: Homo sapiens;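 further: growth inhibition of human PANC-10-05 cells, measured by a cell viability assay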
Description: SANGER: Inhibition of human PANC-10-05 cell growth in a cell viability assay.

[37] = system: COR-L105; type: functional, cell-based; conditions: Homo sapiens;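 further: cell growth inhibition determined with a viability assay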
Description: SANGER: Inhibition of human COR-L105 cell growth in a cell viability assay.

[38] = system: CAL-12T; type: functional, cell-based; conditions: Homo sapiens;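 further: growth inhibition of human CAL-12T cells, read out with a cell viability assay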
Description: SANGER: Inhibition of human CAL-12T cell growth in a cell viability assay.

[39] = system: HCC1419; type: functional, cell-based; conditions: Homo sapiens;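 further: growth inhibition of human HCC1419 cells, read out as cell viability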
Description: SANGER: Inhibition of human HCC1419 cell growth in a cell viability assay.

[40] = system: NCI-H1573; type: functional, cell-based; conditions: Homo sapiens;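 further: growth inhibition of NCI-H1573 cells, read out with a cell viability assay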
Description: SANGER: Inhibition of human NCI-H1573 cell growth in a cell viability assay.

[41] = system: D-336MG; type: functional, cell-based, Homo sapiens; conditions: Homo sapiens, D-336MG
Description: SANGER: Inhibition of human D-336MG cell growth in a cell viability assay.

[42] = system: T47D; type: functional, cell-based; conditions: Homo sapiens;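 further: growth inhibition of human T47D cells, measured with a cell viability assay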
Description: SANGER: Inhibition of human T47D cell growth in a cell viability assay.

[43] = system: G-361; type: functional, cell-based; conditions: Homo sapiens
[44] = system: UACC-62; type: functional, cell-based; conditions: Homo sapiens;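 further: growth inhibition of human UACC-62 cells, read out by a cell viability assay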
Description: SANGER: Inhibition of human UACC-62 cell growth in a cell viability assay.

[45] = system: SW1710; type: functional, cell-based; conditions: Homo sapiens;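 further: growth inhibition of SW1710 cells, determined with a cell viability assay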
Description: SANGER: Inhibition of human SW1710 cell growth in a cell viability assay.

[46] = system: NCI-H28; type: functional, cell-based; conditions: Homo sapiens;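 further: growth inhibition of human NCI-H28 cells, read out as cell viability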
Description: SANGER: Inhibition of human NCI-H28 cell growth in a cell viability assay.

Compound `CN(NC(=O)CC(=O)NN(C)C(=S)c1ccccc1)C(=S)c1ccccc1` [ELESCLOMOL] has an IC50 [1] of over 200 nM, an IC50 [2] of 4.25 nM and an IC50 [3] of 35.5 nM. It also gave an IC50 [4] of 2.51 nM, an IC50 [5] of 22.5 nM and an IC50 [6] of 7.06 nM. The IC50 [7] was 130 nM, the IC50 [8] was 4.13 nM and the IC50 [9] was 9.2 nM. The IC50 [10] was 7.17 nM, the IC50 [11] was 95 nM and the IC50 [12] was 25.9 nM. The IC50 [13] was 1.55 nM, the IC50 [14] was 9.86 nM and the IC50 [15] was over 200 nM. It also gave an IC50 [16] of 16.7 nM, an IC50 [17] of 20.5 nM and an IC50 [18] of 149 nM. The IC50 [19] was 4.99 nM, the IC50 [20] was 40.7 nM and the IC50 [21] was 12.5 nM. The IC50 [22] was 8.84 nM, the IC50 [23] was 12.7 nM and the IC50 [24] was 72.7 nM. For the same compound, the IC50 [25] was over 200 nM, the IC50 [26] was 21.7 nM and the IC50 [27] was 12.9 nM. It also gave an IC50 [28] of 27 nM, an IC50 [29] of 5.52 nM and an IC50 [30] of 10.5 nM. It also gave an IC50 [31] of 0.791 nM, an IC50 [32] of 21.6 nM and an IC50 [33] of over 200 nM. The IC50 [34] was 4.13 nM, the IC50 [35] was 9.93 nM and the IC50 [36] was 110 nM. It also gave an IC50 [37] of 6.76 nM, an IC50 [38] of 63 nM and an IC50 [39] of 19.6 nM. For the same compound, the IC50 [40] was 189 nM, the IC50 [41] was 23.4 nM and the IC50 [42] was 16.8 nM. The IC50 [43] was 27.5 nM, the IC50 [44] was 23.2 nM and the IC50 [45] was 5.16 nM. For the same compound, the IC50 [46] was 13.7 nM.

With `NC(=O)Nc1cc(-c2cccc(F)c2)sc1C(=O)N[C@H]1CCCNC1` [AZD-7762] the IC50 [1] was over 2000 nM, the IC50 [2] was 541 nM and the IC50 [3] was 193 nM. For the same compound, the IC50 [4] was 386 nM, the IC50 [5] was 1270 nM and the IC50 [6] was 755 nM. The IC50 [7] was 123 nM, the IC50 [8] was 470 nM and the IC50 [9] was 298 nM. For the same compound, the IC50 [10] was 128 nM, the IC50 [11] was over 2000 nM and the IC50 [12] was 299 nM. It also gave an IC50 [13] of 370 nM, an IC50 [14] of over 2000 nM and an IC50 [15] of over 2000 nM. It also gave an IC50 [16] of 1170 nM, an IC50 [17] of 985 nM and an IC50 [18] of over 2000 nM. It also gave an IC50 [19] of 493 nM, an IC50 [20] of 662 nM and an IC50 [21] of 637 nM. For the same compound, the IC50 [22] was 750 nM, the IC50 [23] was 619 nM and the IC50 [24] was over 2000 nM. It also gave an IC50 [25] of under 7.81 nM, an IC50 [26] of 936 nM and an IC50 [27] of 388 nM. The IC50 [28] was 303 nM, the IC50 [29] was 708 nM and the IC50 [30] was 350 nM. It also gave an IC50 [31] of over 2000 nM, an IC50 [32] of 513 nM and an IC50 [33] of over 2000 nM. The IC50 [34] was 35.8 nM, the IC50 [35] was over 2000 nM and the IC50 [36] was over 2000 nM. The IC50 [37] was 222 nM, the IC50 [38] was 433 nM and the IC50 [39] was over 2000 nM. For the same compound, the IC50 [40] was 1420 nM, the IC50 [41] was 421 nM and the IC50 [42] was over 2000 nM. For the same compound, the IC50 [43] was 387 nM, the IC50 [44] was 776 nM and the IC50 [45] was 640 nM. It also gave an IC50 [46] of 297 nM.
